From PubChem BioAssay AID1963970 (Molecular Pharmacology Branch, DTP, NCI, 2024)

Tested on: 931267-113-T-J1-PDC multicell spheroid viability
Assay: Anticancer human tumor 931267-113-T-J1-PDC patient-derived colon adenocarcinoma cell line growth inhibition [PI3K]
Settings: for IC50: curve of first compound; for viability, T/C: stronger effect = lower value; active = viability on the fitted dose curve at most 10% of control; inactive = the rest
Outline: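 Agents were dosed from a top concentration near clinical Cmax (otherwise 10 microM) in half-log decrements, alone or combined with PI3K inhibitors. The spheroids contain tumor cells plus endothelial (HUVEC) and MSC stroma; viability is measured.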

[1] = second compound 0.0316 µM, first compound 0.0316 µM
[2] = second compound 0.0316 µM, first compound 0.1 µM
[3] = second compound 0.0316 µM, first compound 0.316 µM
[4] = second compound 0.0316 µM, first compound 1 µM
[5] = second compound 0.0316 µM, first compound 3.16 µM
[6] = second compound 0.0316 µM, first compound 10 µM
[7] = second compound 0.1 µM, first compound 0.0316 µM
[8] = second compound 0.1 µM, first compound 0.1 µM
[9] = second compound 0.1 µM, first compound 0.316 µM
[10] = second compound 0.1 µM, first compound 1 µM
[11] = second compound 0.1 µM, first compound 3.16 µM
[12] = second compound 0.1 µM, first compound 10 µM
[13] = second compound 0.316 µM, first compound 0.0316 µM
[14] = second compound 0.316 µM, first compound 0.1 µM
[15] = second compound 0.316 µM, first compound 0.316 µM
[16] = second compound 0.316 µM, first compound 1 µM
[17] = second compound 0.316 µM, first compound 3.16 µM
[18] = second compound 0.316 µM, first compound 10 µM
[19] = second compound 1 µM, first compound 0.0316 µM
[20] = second compound 1 µM, first compound 0.1 µM
[21] = second compound 1 µM, first compound 0.316 µM
[22] = second compound 1 µM, first compound 1 µM
[23] = second compound 1 µM, first compound 3.16 µM
[24] = second compound 1 µM, first compound 10 µM
[25] = second compound 3.16 µM, first compound 0.0316 µM
[26] = second compound 3.16 µM, first compound 0.1 µM
[27] = second compound 3.16 µM, first compound 0.316 µM
[28] = second compound 3.16 µM, first compound 1 µM
[29] = second compound 3.16 µM, first compound 3.16 µM
[30] = second compound 3.16 µM, first compound 10 µM
[31] = second compound 10 µM, first compound 0.0316 µM
[32] = second compound 10 µM, first compound 0.1 µM
[33] = second compound 10 µM, first compound 0.316 µM
[34] = second compound 10 µM, first compound 1 µM
[35] = second compound 10 µM, first compound 3.16 µM
[36] = second compound 10 µM, first compound 10 µM
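Also: viability read 7 days after compound addition.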

Cn1ncc(Cl)c1-c1cc(C(=O)NC(CN)Cc2cccc(F)c2)sc1Cl (centres undefined) + Cc1nc(NC(=O)N2CCCC2C(N)=O)sc1-c1ccnc(C(C)(C)C(F)(F)F)c1
6.31 µM: IC50 (second compound 0.0316 µM)
inactive: viability, T/C [1] 97.3% | viability, T/C [2] 89% | viability, T/C [3] 88.7% | viability, T/C [4] 73.6% | viability, T/C [5] 79.7% | viability, T/C [6] 33.6% | viability, T/C [7] 101% | viability, T/C [8] 86% | viability, T/C [9] 91.4% | viability, T/C [10] 85% | viability, T/C [11] 68.3% | viability, T/C [12] 29.4% | viability, T/C [13] 89.3% | viability, T/C [14] 94% | viability, T/C [15] 83.2% | viability, T/C [16] 85.9% | viability, T/C [17] 68.2% | viability, T/C [18] 30.2% | viability, T/C [19] 84.3% | viability, T/C [20] 84.7% | viability, T/C [21] 77% | viability, T/C [22] 68.7% | viability, T/C [23] 59.9% | viability, T/C [24] 30.1% | viability, T/C [25] 73.6% | viability, T/C [26] 61.7% | viability, T/C [27] 66.9% | viability, T/C [28] 63.8% | viability, T/C [29] 58.8% | viability, T/C [30] 23.5% | viability, T/C [31] 69.9% | viability, T/C [32] 61.6% | viability, T/C [33] 58.7% | viability, T/C [34] 60.5% | viability, T/C [35] 48.9% | viability, T/C [36] 21.9%
2.63 µM: IC50 (second compound 10 µM)
4.31 µM: IC50 (second compound 1 µM)
5.39 µM: IC50 (second compound 0.1 µM)
5.52 µM: IC50 (second compound 0.316 µM)
4.15 µM: IC50 (second compound 3.16 µM)

Cn1nccc1Nc1nccc(-c2ccn(C(CO)c3ccc(Cl)c(F)c3)c(=O)c2)n1 (centres undefined) + Cc1nc(NC(=O)N2CCCC2C(N)=O)sc1-c1ccnc(C(C)(C)C(F)(F)F)c1
4.76 µM: IC50 (second compound 0.0316 µM)
inactive: viability, T/C [1] 94.7% | viability, T/C [2] 90.4% | viability, T/C [3] 92.4% | viability, T/C [4] 77.2% | viability, T/C [5] 57.5% | viability, T/C [6] 37.3% | viability, T/C [7] 102% | viability, T/C [8] 88.4% | viability, T/C [9] 82.8% | viability, T/C [10] 68.9% | viability, T/C [11] 52.9% | viability, T/C [12] 31.7% | viability, T/C [13] 90.3% | viability, T/C [14] 92.2% | viability, T/C [15] 77.9% | viability, T/C [16] 68% | viability, T/C [17] 43.9% | viability, T/C [18] 27.5% | viability, T/C [19] 86.4% | viability, T/C [20] 78.5% | viability, T/C [21] 71.4% | viability, T/C [22] 54% | viability, T/C [23] 39.5% | viability, T/C [24] 19.1% | viability, T/C [25] 74.9% | viability, T/C [26] 65.2% | viability, T/C [27] 58.1% | viability, T/C [28] 43.6% | viability, T/C [29] 36.3% | viability, T/C [30] 15.2% | viability, T/C [31] 57% | viability, T/C [32] 50.7% | viability, T/C [33] 45.2% | viability, T/C [34] 39.4% | viability, T/C [35] 26.4% | viability, T/C [36] 14.3%
0.143 µM: IC50 (second compound 10 µM)
2.38 µM: IC50 (second compound 0.316 µM)
3.57 µM: IC50 (second compound 0.1 µM)
1.47 µM: IC50 (second compound 1 µM)
0.65 µM: IC50 (second compound 3.16 µM)
